Paper PMC5854746 (Cancer Chemotherapy and Pharmacology, 2018)
Several values for one entry are separate records, joined by “and”; a condition that tells them apart may be missing. Identical values can stand only once. Entries after “also recorded” stand apart in the source; their conditions may differ. Like-named read-outs stand apart in the source and are kept apart here.

Assays:
[1] = cited from earlier work
[2] = Optimized value, updated based on literature data ref 1, 32; cited from earlier work
[3] = test system: plasma proteins, mainly albumin and α-1 acid glycoprotein; details: cited from earlier work
[4] = clinical; details: human, plasma; for clearance: Cltot; for half-life: T 1/2el; for Vd: V d; for AUC(0-t): 100 mg p.o.
[5] = oral; 9 (ref 1, 11); cited from earlier work
[6] = oral, mean ± SD, Day 1, observed, n=26, calculated with a bioavailability of 60%
[7] = oral, min–max, Day 1, observed, n=26
[8] = Day 3, observed, 100 mg p.o. q.d., n=26
[9] = Day 6 (steady state), observed, 100 mg p.o. q.d., n=26
[10] = co-administered ARAs, study population
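Wherever C last (trough at 24 h), mean ± SD is given: plasma pharmacokinetics in a phase 1b study of patients with locally advanced or metastatic pancreatic adenocarcinoma.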
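Wherever C peak, mean ± SD is given: plasma pharmacokinetics in a phase 1b study of patients with locally advanced or metastatic pancreatic adenocarcinoma.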
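Wherever Tmax is given: plasma pharmacokinetics in a phase 1b study of patients with locally advanced or metastatic pancreatic adenocarcinoma.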
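Wherever Vd is given: plasma pharmacokinetics in a phase 1b study of patients with locally advanced or metastatic pancreatic adenocarcinoma.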

For `C#Cc1cccc(Nc2ncnc3cc(OCCOC)c(OCCOC)cc23)c1` [erlotinib], the Solubility in water ([1]; free base) is given as “only very slightly soluble in water”, the “Biopharmaceutics Classification System (BCS) class” value ([1]; low solubility, high permeability) is given as “class II” and the pKa ([1]; weak base, limited solubility at pH above it) is given as 5.4. For the same compound, the “Basic pKa” value [2] was 5.4, the Intrinsic solubility [2] was 8.9 µg/mL and the “Bound to plasma proteins” value [3] was “approximately 95%”. It also gave a clearance [4, 6] of 91.8 mL/min, a clearance [4, 7] of 7.83 to 502 mL/min and a concentration at 24 h ([4]; oral, Mean erlotinib trough concentrations calculated for each patient, range, long-term study, 10 patients, 100 mg q.d.) of 60 to 1780 ng/mL. The concentration at 24 h ([4]; oral, Mean trough concentration ± SD, Pat.1, weeks 1–15, N=10, 100 mg erlotinib q.d.) was 1670 ± 440 ng/mL, the concentration at 24 h ([4]; oral, Mean trough concentration ± SD, Pat.10, co-medication of acid reducing agents, weeks 1–11, N=11, 100 mg q.d.) was 160 ± 60 ng/mL and the concentration at 24 h ([4]; oral, Mean trough concentration ± SD, Pat.2, co-medication of acid reducing agents, weeks 1–9, N=9, 100 mg q.d.) was 160 ± 40 ng/mL. For the same compound, the concentration at 24 h ([4]; oral, Mean trough concentration ± SD, Pat.8, co-medication of acid reducing agents, weeks 1–16, N=16, 100 mg q.d.) was 270 ± 380 ng/mL, the concentration at 24 h ([4]; oral, Mean trough concentration ± SD, Pat.9, co-medication of acid reducing agents, weeks 1–50, N=47, 100 mg q.d.) was 60 ± 40 ng/mL and the half-life ([4]; oral, mean ± SD, Day 1, observed, n=26) was 18.7 ± 13.1 h. The half-life [4, 7] was 4.1 to 59 h, the concentration at 24 h ([4]; oral, Trough concentration min–max, Pat.1, weeks 1–15, N=10, 100 mg erlotinib q.d.) was 770 to 2200 ng/mL and the concentration at 24 h ([4]; oral, Trough concentration min–max, Pat.10, co-medication of acid reducing agents, weeks 1–11, N=11, 100 mg q.d.) was 70 to 310 ng/mL. For the same compound, the concentration at 24 h ([4]; oral, Trough concentration min–max, Pat.8, co-medication of acid reducing agents, weeks 1–16, N=16, 100 mg q.d.) was 20 to 1310 ng/mL, the concentration at 24 h ([4]; oral, Trough concentration min–max, Pat.9, co-medication of acid reducing agents, weeks 1–50, N=47, 100 mg q.d.) was 10 to 160 ng/mL and the concentration at 24 h ([4]; oral, Trough plasma concentrations, range, long-term assessment (up to 50 weeks), 100 mg q.d., 10 patients) was 10 to 2400 ng/mL. The Vd [4, 6] was 97.9 ± 61.7 L, the Vd [4, 7] was 18 to 268 L and the Tmax ([4]; po, 100 mg) was 1 to 8 h. For the same compound, the AUC(0-t) ([4]; po, 100 mg, AUC0–24, mean ± SD, Day 1, observed, n=26) was 12500 ± 9380 ng·h/mL, the AUC(0-t) ([4]; po, 100 mg, AUC0–24, min–max, Day 1, observed, n=26) was 1230 to 36400 ng·h/mL and the concentration at 24 h ([4]; po, C last (trough at 24 h), mean ± SD, Day 1, observed, 100 mg p.o. q.d., n=26) was 330 ng/mL. For the same compound, the concentration at 24 h ([4]; po, C last (trough at 24 h), min–max, Day 1, observed, 100 mg p.o. q.d., n=26) was 40 to 1220 ng/mL, the “C peak, mean ± SD” value (Day 1, observed, 100 mg erlotinib p.o. q.d., patients n=26, arithmetic mean) was 0.84 µg/mL and 0.84 ± 0.54 µg/mL and the “C last (trough at 24 h), mean ± SD” value (Day 1, observed, 100 mg p.o. q.d., n=26) was 330 ± 290 ng/mL. For the same compound, the “T max, median” value (Day 1, observed, 100 mg p.o., n=26) was 2.00 h, the “C peak, mean ± SD” value [8] was 1.04 ± 0.62 µg/mL and the “C trough, mean ± SD” value [8] was 450 ± 370 ng/mL. The “C peak, mean ± SD” value [9] was 1.38 µg/mL and 1.38 ± 0.66 µg/mL, the “C trough, mean ± SD” value [9] was 720 ng/mL and 720 ± 530 ng/mL and the “Mean trough concentration ± SD” value (Pat.3, weeks 1–50, N=50, 100 mg q.d.) was 0.89 ± 0.68 µg/mL. For the same compound, the “Mean trough concentration ± SD” value (Pat.4, weeks 1–8, N=7, 100 mg q.d.) was 0.66 ± 0.27 µg/mL, the “Mean trough concentration ± SD” value (Pat.5, co-medication of acid reducing agents, weeks 1–4, N=4, 100 mg q.d.) was 0.37 ± 0.09 µg/mL and the “Mean trough concentration ± SD” value (Pat.6, weeks 1–8, N=8, 100 mg q.d.) was 1.78 ± 0.74 µg/mL. For the same compound, the “Mean trough concentration ± SD” value (Pat.7, weeks 1–9, N=9, 100 mg q.d.) was 1.20 ± 0.51 µg/mL, the “Reduction of AUC0–24” value [10] was 52% and the “Reduction of Cmax” value [10] was 56%. The “Patients with concentrations below the activity threshold of 0.5 µg/ml” value (during the first week) was 7%, the “Patients that never reached the threshold of 0.5 µg/ml” value (first week of erlotinib therapy) was 2 of the 26 patients and the “Patients with Ctrough values below the activity threshold” value (long-term analysis, all received ARAs concomitantly) was 5 of the 10 patients. For the same compound, the “Accumulation of erlotinib in plasma” value (long-term monitoring up to 50 weeks, 100 mg q.d.) was “did not show any significant accumulation; also recorded: did not lead to drug accumulation”, the “Patients that did not reach the threshold of 0.5 µg/ml” value (within 24 h after the first administration) was 10 of the 26 patients and the “Bioavailability (estimated)” value [5] was 60%.
